{"source": "paper PMC8111499", "about": "“GW117: A novel serotonin (5‐HT2C) receptor antagonist and melatonin (MT1/MT2) receptor agonist with potential antidepressant‐like activity in rodents” (CNS Neuroscience & Therapeutics, 2021)", "key": {"[1]": {"biological_target": "T1, MT2 receptor (Homo sapiens, UniProt P49286)", "T1 construct": "purchased Perkin‐Elmer ES‐621", "T1 sequence (P49286 1-362)": "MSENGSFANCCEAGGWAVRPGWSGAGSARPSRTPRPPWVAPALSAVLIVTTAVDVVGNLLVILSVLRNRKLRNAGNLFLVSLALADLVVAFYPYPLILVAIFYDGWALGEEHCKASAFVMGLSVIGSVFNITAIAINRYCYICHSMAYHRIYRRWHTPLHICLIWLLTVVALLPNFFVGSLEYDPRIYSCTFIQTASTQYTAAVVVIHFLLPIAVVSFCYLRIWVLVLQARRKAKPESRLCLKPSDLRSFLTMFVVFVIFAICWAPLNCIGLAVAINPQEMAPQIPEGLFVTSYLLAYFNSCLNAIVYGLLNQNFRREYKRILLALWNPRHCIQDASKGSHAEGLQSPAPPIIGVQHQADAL", "assay": "MT2 receptor binding assay ([3H]‐melatonin competition)", "settings": "mean ± SEM, three independent experiments", "procedure": "The stably transfected 5‐HT2C receptor HEK293 cell line was prepared using a nucleus‐cytoplasm‐membrane preparation kit (Applagin Technologies Inc.). Briefly, cells were harvested at 4°C, 110 00 × g and centrifugation for 5 min. Homogenize pellets in the assay buffer (50 mM Tris‐HCl buffer containing 120 mM NaCl and 5 mM KCl, pH 7.4) and then centrifuged twice at 4°C, 36,000 × g for 15 min. Finally, pellets were re‐suspended in assay buffer and stored it at −80°C until it is used for in vitro experiments.\nReceptor membrane protein, MT1 or MT2 (10 μl), was added to all pipes. Non‐specific binding was determined by the presence of unlabeled 10 µM melatonin and pre‐reacted for 30 min. In test tubes, 30 μl of test drugs (MT1: concentration, 10^−4–10^−10 M; MT2: concentration, 10^−4–10^−11 M) was added. Additionally, 40 μl [^3H]‐melatonin was added to all tubes. The volume in all reaction tubes was made up to 300 μl with Tris‐HCl buffer (50 mM, pH 7.4). Reactions were performed at 25°C for 1 h. The mixture was then spotted onto a type 49 glass fiber filter paper, suction filtered under vacuum, rinsed three times with 2 ml ice‐cold Tris‐HCl buffer (50 mM, pH 7.4), and dried by suction. […] Finally, 1 ml of scintillation fluid was added and then the radioactive intensity measured by liquid scintillation counting."}, "[2]": {"biological_target": "T2, 5‐HT2C receptor from rat hippocampal membranes (Rattus norvegicus, UniProt P08909)", "T2 construct": "5‐HT2C receptor from rat hippocampal membranes (C‐D); from tissue; host or cells: rat hippocampus", "T2 sequence (P08909 33-460)": "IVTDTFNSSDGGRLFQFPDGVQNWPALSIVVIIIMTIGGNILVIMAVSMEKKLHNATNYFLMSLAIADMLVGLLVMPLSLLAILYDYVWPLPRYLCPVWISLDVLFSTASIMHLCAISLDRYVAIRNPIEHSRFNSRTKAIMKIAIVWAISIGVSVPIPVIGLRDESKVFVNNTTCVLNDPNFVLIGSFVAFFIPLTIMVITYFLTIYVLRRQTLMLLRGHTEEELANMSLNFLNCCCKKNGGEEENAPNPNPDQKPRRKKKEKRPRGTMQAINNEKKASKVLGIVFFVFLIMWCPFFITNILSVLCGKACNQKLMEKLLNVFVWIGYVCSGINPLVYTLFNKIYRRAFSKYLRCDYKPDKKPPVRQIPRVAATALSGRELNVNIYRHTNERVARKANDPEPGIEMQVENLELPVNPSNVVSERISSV", "assay": "[35S]‐GTPγS and [3H]PIP assays, blockade of 5‐HT activation", "assay_type": "biochemical", "settings": "10 nM 5‐HT", "procedure": "This experiment was mentioned earlier. ^27 In short, HEK293 cell membrane stably expressing human 5‐HT2C receptors or rat hippocampal tissue membrane or MT1/MT2 receptors was re‐suspended in buffer (50 mmol/L Tris, 100 mmol/L NaCl, 5 mmol/L MgCl2·6H2O, 0.1 mmol/L EDTA‐Na2·6H2O, 0.2 mmol/L EGTA, pH 7.4) and incubated with the test compound (100 μM GDP, 0.2 nM [^35S]‐GTP, or [^3H]PIP) for 60 min at 28℃. At the end of the experiment, Whatman GF/C filters pre‐soaked with distilled water were used for rapid filtration followed by washing with 5 ml of ice‐cold Tris buffer. Determination of non‐specific binding in the presence of GTPγS and radioactivity was measured by liquid scintillation counting. Calculation of the concentration produces a half‐maximal effect (EC50) and the maximal increase above the baseline value."}, "[3]": {"test_system": "rats", "assay": "Locomotor activity in rats", "assay_type": "in vivo", "settings": "for Locomotor activity, Crossing number / Locomotor activity, Rearing number: Rats, mean ± S.E.M.", "procedure": "In order to confirm whether GW117 has an antidepressant activity, we used spontaneous activities in mice and rats to determine whether GW117 affects the central system. 64 ICR mice were randomly allocation to five therapy groups ([…]): control group, 5 mg/kg GW117, 10 mg/kg GW117, 20 mg/kg GW117, and 40 mg/kg GW117. All rats and mice received one administration (p.o.). After sixty minutes of gavage administration, each mouse or rat was located in the corner of an open field chamber (36 × 29 × 23 cm for mice; 76 × 76 × 46 cm for rats) to adapt to 5 min. The numbers of crossings and rearings were recorded during the subsequent 5 min."}, "[4]": {"test_system": "mice", "assay": "Learned helplessness paradigm in mice", "assay_type": "in vivo, ICR mice", "settings": "sub‐chronic, fourth day after inescapable shock training, vs stress", "procedure": "For 4 consecutive days, mice were putted into the shuttle box device (40 × 10 × 13 cm), the device was splited into two compartments, and mice could free access. In the IS group, each mouse received 360 inescapable shocks (current intensity 0.30 mA, duration 2 s, 3‐13 s variable interval, about 1 h) over four consecutive training days. Animals in the NIS group underwent the same handling without receiving the foot shocks. 10 trials were conducted on mice to screen helpless, each of which includes conditioned stimulation period (3‐s lamp on), non‐conditioned stimulation period (3‐s lamp +shock), and interval period (without any stimulus, 25 s). […] The EF values were balanced for each group in the experiment. Using Graphic State software (Coulbourn Instruments Inc.,) recorded the number of escape failures and the latency to escape."}}, "data": [{"smiles": "[2H]C([2H])([2H])Oc1cc2c(CCNC(C)=O)cccc2cc1Cl", "note": "[GW117]", "values": [{"measurement": "Ki", "setting": "[1]", "value": "54 ± 7.31", "unit": "nM"}, {"measurement": "blockade of activation of [35S]‐GTPγS binding and [3H]PIP released by 5‐HT", "setting": "[2]", "value": "dose‐dependently blocked"}, {"measurement": "Locomotor activity, Crossing number", "setting": "[3]; 5 mg/kg p.o.", "value": "70.3 ± 5.1"}, {"measurement": "Locomotor activity, Rearing number", "setting": "[3]; 5 mg/kg p.o.", "value": "14.2 ± 1.4"}, {"measurement": "Locomotor activity, Crossing number", "setting": "[3]; 10 mg/kg p.o.", "value": "71.3 ± 6.8"}, {"measurement": "Locomotor activity, Rearing number", "setting": "[3]; 10 mg/kg p.o.", "value": "14.9 ± 1.5"}, {"measurement": "Locomotor activity, Crossing number", "setting": "[3]; 20 mg/kg p.o.", "value": "60.9 ± 4.4"}, {"measurement": "Locomotor activity, Rearing number", "setting": "[3]; 20 mg/kg p.o.", "value": "13.8 ± 1.3"}, {"measurement": "Locomotor activity, Crossing number", "setting": "[3]; 40 mg/kg p.o.", "value": "63.5 ± 4.6"}, {"measurement": "Locomotor activity, Rearing number", "setting": "[3]; 40 mg/kg p.o.", "value": "12.8 ± 1.3"}, {"measurement": "effect on number of crossings and rearings in the spontaneous activity test", "setting": "[3]; rats, 5, 10, 20, or 40 mg/kg by gavage", "value": "had no effect"}, {"measurement": "number of failures to escape", "setting": "[4]; 40 mg/kg", "value": "significantly decreased the number of failures to escape"}, {"measurement": "escape latency", "setting": "[4]; 20 and 40 mg/kg", "value": "decreased the escape latency"}]}]}
